# Legend:
# Format in all cases: cell-based
# KCa1.1 (hKCa1.1, KCNMA) = KCa1.1 (hKCa1.1, KCNMA) (Homo sapiens, UniProt Q12791); experiment: two-electrode voltage clamp, Xenopus laevis oocytes; conditions: Kulori solution, pH 7.4; n=5
# TRPM8 (hTRPM8) = TRPM8 (hTRPM8) (Homo sapiens, UniProt Q7Z2W7); experiment: Fluo-4 calcium flux assay, HEK-293 TRPM8 cells; conditions: antagonist mode; 30 min incubation; normalized to icilin (50 µM) response
# KV11.1 (hERG) = KV11.1 (hERG) (Homo sapiens, UniProt Q12809); experiment: automated patch clamp
# Chain of KV11.1 (hERG) (Q12809 whole entry): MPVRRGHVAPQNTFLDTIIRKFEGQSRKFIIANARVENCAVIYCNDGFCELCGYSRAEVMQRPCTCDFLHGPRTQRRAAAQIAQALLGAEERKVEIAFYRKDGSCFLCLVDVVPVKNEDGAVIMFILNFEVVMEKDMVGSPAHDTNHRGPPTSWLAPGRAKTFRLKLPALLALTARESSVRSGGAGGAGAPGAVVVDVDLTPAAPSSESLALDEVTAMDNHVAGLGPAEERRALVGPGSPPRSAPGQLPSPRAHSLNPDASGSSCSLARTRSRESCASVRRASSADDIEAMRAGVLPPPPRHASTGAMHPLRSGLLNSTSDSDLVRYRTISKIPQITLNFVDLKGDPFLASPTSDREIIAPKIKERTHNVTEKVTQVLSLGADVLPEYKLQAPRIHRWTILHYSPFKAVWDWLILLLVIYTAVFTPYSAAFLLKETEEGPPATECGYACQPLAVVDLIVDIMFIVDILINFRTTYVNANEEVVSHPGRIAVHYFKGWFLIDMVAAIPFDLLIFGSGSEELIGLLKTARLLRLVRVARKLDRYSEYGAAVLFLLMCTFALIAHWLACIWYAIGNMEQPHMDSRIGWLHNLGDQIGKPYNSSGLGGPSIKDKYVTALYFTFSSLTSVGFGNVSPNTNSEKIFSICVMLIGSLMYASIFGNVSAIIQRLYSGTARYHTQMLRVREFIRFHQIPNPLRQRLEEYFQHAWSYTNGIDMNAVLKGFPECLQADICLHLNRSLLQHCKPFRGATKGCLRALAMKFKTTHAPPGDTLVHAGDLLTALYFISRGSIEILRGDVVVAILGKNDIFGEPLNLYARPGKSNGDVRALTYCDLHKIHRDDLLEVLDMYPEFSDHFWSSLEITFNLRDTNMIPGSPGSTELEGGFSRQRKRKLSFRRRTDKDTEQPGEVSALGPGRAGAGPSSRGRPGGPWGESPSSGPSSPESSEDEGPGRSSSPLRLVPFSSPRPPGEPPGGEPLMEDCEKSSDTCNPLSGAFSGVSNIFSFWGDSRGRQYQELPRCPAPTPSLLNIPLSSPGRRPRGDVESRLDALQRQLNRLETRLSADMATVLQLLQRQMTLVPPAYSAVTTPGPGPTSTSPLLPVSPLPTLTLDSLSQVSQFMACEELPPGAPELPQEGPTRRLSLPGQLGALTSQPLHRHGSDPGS
# Chain of TRPM8 (hTRPM8) (Q7Z2W7 whole entry): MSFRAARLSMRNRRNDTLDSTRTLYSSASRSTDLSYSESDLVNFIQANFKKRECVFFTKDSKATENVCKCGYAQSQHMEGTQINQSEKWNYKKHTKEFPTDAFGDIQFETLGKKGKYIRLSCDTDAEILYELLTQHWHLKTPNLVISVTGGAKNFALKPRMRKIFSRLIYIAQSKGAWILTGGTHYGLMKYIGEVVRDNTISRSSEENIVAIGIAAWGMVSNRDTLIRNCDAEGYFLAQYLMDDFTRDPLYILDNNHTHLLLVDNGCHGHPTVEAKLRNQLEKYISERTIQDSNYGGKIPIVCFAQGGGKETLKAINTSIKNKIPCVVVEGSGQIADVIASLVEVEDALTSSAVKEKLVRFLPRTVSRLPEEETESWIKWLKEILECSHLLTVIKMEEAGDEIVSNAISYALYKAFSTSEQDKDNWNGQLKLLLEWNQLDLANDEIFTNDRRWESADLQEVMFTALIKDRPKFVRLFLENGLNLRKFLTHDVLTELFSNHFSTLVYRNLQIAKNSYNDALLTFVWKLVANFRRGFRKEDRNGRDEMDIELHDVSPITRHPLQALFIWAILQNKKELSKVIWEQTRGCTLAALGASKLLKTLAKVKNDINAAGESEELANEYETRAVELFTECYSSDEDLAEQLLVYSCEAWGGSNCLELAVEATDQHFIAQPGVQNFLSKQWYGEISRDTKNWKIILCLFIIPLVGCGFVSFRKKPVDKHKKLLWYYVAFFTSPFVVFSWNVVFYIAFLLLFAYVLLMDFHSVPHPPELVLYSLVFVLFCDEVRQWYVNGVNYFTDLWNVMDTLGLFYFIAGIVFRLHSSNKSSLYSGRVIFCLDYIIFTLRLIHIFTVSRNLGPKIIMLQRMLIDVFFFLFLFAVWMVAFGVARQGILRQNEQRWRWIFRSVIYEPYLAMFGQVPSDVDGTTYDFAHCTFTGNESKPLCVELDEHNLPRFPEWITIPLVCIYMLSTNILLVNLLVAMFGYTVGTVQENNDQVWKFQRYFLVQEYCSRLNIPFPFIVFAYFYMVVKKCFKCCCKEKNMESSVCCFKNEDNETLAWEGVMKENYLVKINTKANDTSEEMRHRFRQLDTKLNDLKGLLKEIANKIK
# Chain of KCa1.1 (hKCa1.1, KCNMA) (Q12791 whole entry): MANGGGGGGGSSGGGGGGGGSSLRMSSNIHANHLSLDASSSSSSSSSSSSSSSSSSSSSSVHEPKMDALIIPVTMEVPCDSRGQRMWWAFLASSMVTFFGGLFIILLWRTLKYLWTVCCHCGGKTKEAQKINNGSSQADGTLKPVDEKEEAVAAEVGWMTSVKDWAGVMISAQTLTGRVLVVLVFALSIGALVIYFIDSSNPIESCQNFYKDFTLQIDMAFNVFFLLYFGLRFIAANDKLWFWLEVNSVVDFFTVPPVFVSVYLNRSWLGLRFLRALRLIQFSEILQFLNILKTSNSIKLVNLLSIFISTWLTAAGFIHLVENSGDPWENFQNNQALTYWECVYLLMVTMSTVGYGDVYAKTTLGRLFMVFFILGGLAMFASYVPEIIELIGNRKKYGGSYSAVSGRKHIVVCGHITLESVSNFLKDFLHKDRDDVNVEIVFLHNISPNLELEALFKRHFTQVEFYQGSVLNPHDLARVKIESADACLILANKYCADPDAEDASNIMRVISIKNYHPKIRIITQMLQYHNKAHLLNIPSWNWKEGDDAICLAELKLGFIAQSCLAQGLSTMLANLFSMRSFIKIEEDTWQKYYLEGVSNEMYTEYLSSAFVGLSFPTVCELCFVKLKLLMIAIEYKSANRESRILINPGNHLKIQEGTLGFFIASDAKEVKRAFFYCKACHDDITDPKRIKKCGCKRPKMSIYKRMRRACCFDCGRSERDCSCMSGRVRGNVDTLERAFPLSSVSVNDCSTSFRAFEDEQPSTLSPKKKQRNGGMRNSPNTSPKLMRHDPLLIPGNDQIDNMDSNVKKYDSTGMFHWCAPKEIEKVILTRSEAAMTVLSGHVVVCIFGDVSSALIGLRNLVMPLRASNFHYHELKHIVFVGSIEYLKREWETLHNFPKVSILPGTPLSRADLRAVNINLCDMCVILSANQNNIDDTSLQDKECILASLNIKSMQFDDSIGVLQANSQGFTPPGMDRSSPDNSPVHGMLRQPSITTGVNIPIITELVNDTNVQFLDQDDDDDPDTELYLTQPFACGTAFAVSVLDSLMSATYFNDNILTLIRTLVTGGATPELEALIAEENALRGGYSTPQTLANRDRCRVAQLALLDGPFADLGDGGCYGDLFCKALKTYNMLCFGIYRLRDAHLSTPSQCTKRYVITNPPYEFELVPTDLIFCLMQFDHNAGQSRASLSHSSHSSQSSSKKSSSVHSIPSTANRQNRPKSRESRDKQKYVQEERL
smiles,measurement,setting,value
"COc1c(I)cc(CCN)cc1I [DIMTA, 2-(3,5-diiodo-4-methoxyphenyl)ethan-1-amine]",% inhibition at 5 μM,"KCa1.1 (hKCa1.1, KCNMA)",18 ± 5%
same,IC50,TRPM8 (hTRPM8),112 µM
same,IC50,KV11.1 (hERG),18.7 ± 0.1 µM

# Reference: doi:10.1101/2021.05.05.442828v1 (biorxiv, 2021)
